Data taken from US8153819B2, “Fungicidal mixtures comprising substituted 1-methylpyrazol-4-ylcarboxanilides” (BASF SE, priority 2005, dated 2012).

What was measured:
Puccinia recondita = assay: Curative activity against brown rust of wheat caused by Puccinia recondita; format: in vivo; conditions: curative spray 1 day after inoculation, read after 7 days
Method: (§1) The active compounds, separately or jointly, were prepared as a stock solution comprising 25 mg of active compound which was made up to 10 ml using a mixture of acetone and/or dimethyl sulfoxide and the emulsifier Uniperol® EL (wetting agent having an emulsifying and dispersing action based on ethoxylated alkylphenols) in a ratio by volume of solvent/emulsifier of 99:1. The mixture was then made up to 100 ml with water. This stock solution was diluted with the solvent/emulsifier/water mixture described to give the concentration of active compound stated below.
(§2) As an alternative, the active compounds epoxiconazole, triticonazole and pyraclostrobin were used as commercially available ready-to-use formulation and diluted to the specified active compound concentration with water.
(§3) The visually determined percentages of infected leaf areas were converted into efficacies in % of the untreated control:
(§4) The efficacy (E) is calculated as follows using Abbot's formula: E=(1−α/β)·100 α corresponds to the fungicidal infection of the treated plants in % and β corresponds to the fungicidal infection of the untreated (control) plants in %
(§5) An efficacy of 0 means that the infection level of the treated plants corresponds to that of the untreated control plants; an efficacy of 100 means that the treated plants are not infected.
(§6) The expected efficacies of active compound combinations were determined using Colby's formula (Colby, S. R. “Calculating synergistic and antagonistic responses of herbicide combinations”, Weeds, 15, 20-22, 1967) and compared with the observed efficacies.
(§7) Colby's formula: E=x+y−x·y/100 • E expected efficacy, expressed in % of the untreated control, when using the mixture of the active compounds A and B at the concentrations a and b; • x efficacy, expressed in % of the untreated control, when using the active compound A at the concentration a; • y efficacy, expressed in % of the untreated control, when using the active compound B at the concentration b.
Leaves of potted wheat seedlings of the cultivar “Kanzler” were inoculated with a spore suspension of brown rust (Puccinia recondita). The pots were then placed in a chamber with high atmospheric humidity (90 to 95%) and 20 to 22° C. for 24 hours. During this time, the spores germinated and the germ tubes penetrated into the leaf tissue. The next day, the infected plants were sprayed to runoff point with the above-described active compound solution having the active compound concentration stated below. After the spray coating had dried on, the test plants were cultivated in a greenhouse at temperatures between 20 and 22° C. and 65 to 70% relative atmospheric humidity for 7 days. The extent of the rust fungal development on the leaves was then determined.

Botrytis cinerea = assay: Activity against gray mold on bell pepper leaves caused by Botrytis cinerea, 1 day protective application; format: in vivo; conditions: 1 day protective spray, read after 5 days
Method: as §1, §2, §3, §4, §5, §6, §7
Bell pepper seedlings of the cultivar “Neusiedler Ideal Elite” were, after 2-3 leaves were well developed, sprayed to runoff point with an aqueous suspension in the active compound concentration specified below. The next day, the treated plants were inoculated with a spore suspension of Botrytis cinerea which contained 1.7×10^6 spores/ml in a 2% strength aqueous biomalt solution. The test plants were then placed in a climatized chamber at 22 to 24° C., darkness and high atmospheric humidity. After 5 days, the extent of the fungal infection on the leaves could be determined visually in %.

[1] = tested on: Pyrenophora [syn. Drechslera] teres; assay: Activity against net blotch of barley caused by Pyrenophora teres, 1 day protective application; format: in vivo; conditions: barley seedlings sprayed 24 h before inoculation, read after 6 days, efficacy in % of untreated control (Abbot)
Method: as §1, §2, §3
The efficacy (E) is calculated as follows using Abbot's formula: E=(1−α/β)·100 α corresponds to the fungicidal infection of the treated plants in % and β corresponds to the fungicidal infection of the untreated (control) plants in % […]
(§8) The expected efficacies of active compound combinations were determined using Colby's formula (Colby, S. R. “Calculating synergistic and antagonistic responses of herbicide combinations”, Weeds, 15, 20-22, 1967) and compared with the observed efficacies. […]

Alternaria solani = assay: Activity against early blight of tomato caused by Alternaria solani (protective spray); format: in vivo; conditions: tomato leaves sprayed 1 day before infection, read after 5 days, efficacy in % of untreated control (Abbot)
Method: as §1, §2, §3, §4, §5, §8
Leaves of potted tomato plants were sprayed to runoff point with an aqueous suspension having the active compound concentration stated below. […] After 5 days, the disease on the untreated but infected control plants had developed to such an extent that the infection could be determined visually in %.

Cn1cc(C(=O)Nc2ccccc2-c2cc(F)c(F)c(F)c2)c(C(F)F)n1 [No. Id.344, N-(3′,4′,5′-trifluorobiphenyl-2-yl)-3-difluoromethyl-1-methyl-1H-pyrazole-4-carboxamide]
Observed activity (% infection) (Puccinia recondita; 1 mg/l): 0%
Observed activity (% infection) (Botrytis cinerea; 1 mg/l): 40%
Observed activity (% infection) ([1]; 0.25 mg/l): 67%

Fc1ccc([C@]2(Cn3cncn3)O[C@H]2c2ccccc2Cl)cc1 (racemic) [epoxiconazole, (2RS,3SR)-1-[3-(2-chlorophenyl)-2,3-epoxy-2-(4-fluorophenyl)propyl]-1H-1,2,4-triazole, reference compound]
Observed activity (% infection) (Puccinia recondita; 0.063 mg/l): 0%
Observed activity (% infection) ([1]; 0.063 mg/l): 0%

COC(=O)N(OC)c1ccccc1COc1ccn(-c2ccc(Cl)cc2)n1 [pyraclostrobin, methyl N-{2-[1-(4-chlorophenyl)-1H-pyrazol-3-yloxymethyl]phenyl}(N-methoxy)carbamate, reference compound]
Observed activity (% infection) (Alternaria solani; 4 mg/l): 50%
Observed activity (% infection) (Puccinia recondita; 1 mg/l): 0%

CC1(C)CCC(=Cc2ccc(Cl)cc2)C1(O)Cn1cncn1 (centres unmarked) [triticonazole]
Observed activity (% infection) (Puccinia recondita; 1 mg/l): 0%
Observed activity (% infection) (Botrytis cinerea; 4 mg/l): 0%

CC1CCN(c2c(-c3c(F)cc(F)cc3F)c(Cl)nc3ncnn23)CC1 [5-chloro-7-(4-methyl-piperidin-1-yl)-6-(2,4,6-trifluorophenyl)-[1,2,4]tri-azolo[1,5-a]pyrimidine]
Observed activity (% infection) (Puccinia recondita; 4 mg/l): 40%

Cn1cc(C(=O)Nc2ccccc2-c2cc(F)c(F)c(F)c2)c(CF)n1 [No. Ig. 344, N-(3′,4′,5′-trifluorobiphenyl-2-yl)-3-fluoromethyl-1-methyl-1H-pyrazole-4-carboxamide]
melting point: 152 to 156 °C

N#Cc1c(Cl)c(Cl)c(Cl)c(C#N)c1Cl [chlorthalonil, 2,4,5,6-tetrachloroisophthalonitrile, reference compound]
Observed activity (% infection) (Alternaria solani; 63 mg/l): 0%
Observed activity (% infection) (Puccinia recondita; 16 mg/l): 0%

Cn1nc(Cl)c(C(=O)Nc2ccccc2-c2cc(F)c(F)c(F)c2)c1CF [No. Ij. 344, N-(3′,4′,5′-trifluorobiphenyl-2-yl)-3-chlorofluoromethyl-1-methyl-1H-pyrazole-4-carboxamide]
melting point: 154 to 157 °C

COc1cc(C)c(C(=O)c2c(OC)ccc(Br)c2C)c(OC)c1OC [metrafenone]
Observed activity (% infection) (Botrytis cinerea; 4 mg/l): 0%
Observed activity (% infection) (Botrytis cinerea; 16 mg/l): 0%
Observed activity (% infection) (Botrytis cinerea; 63 mg/l): 0%

Cn1nc(Cl)c(C(=O)Nc2ccccc2-c2cc(F)c(F)c(F)c2)c1C(F)F [No. Ih. 344, N-(3′,4′,5′-trifluorobiphenyl-2-yl)-3-chlorodifluoromethyl-1-methyl-1H-pyrazole-4-carboxamide]
melting point: 158 to 161 °C

COc1ccc(C(=CC(=O)N2CCOCC2)c2ccc(Cl)cc2)cc1OC [dimethomorph]
Observed activity (% infection) (Botrytis cinerea; 4 mg/l): 0%
Observed activity (% infection) (Botrytis cinerea; 16 mg/l): 0%
Observed activity (% infection) (Botrytis cinerea; 63 mg/l): 0%

zinc ammoniate ethylenebis(dithiocarbamate) [metiram, reference compound]
Observed activity (% infection) (Alternaria solani; 63 mg/l): 0%
Observed activity (% infection) (Botrytis cinerea; 16 mg/l): 0%
